Test: Crystallization at room temperature by slow evaporation
Description: Combined with approximate solubility experiment, solubility samples were filtered by 0.45 μm nylon filter. Obtained solutions were slow evaporated at ambient condition. Solid residues were examined for their polymorphic form (Table 34).
Scale up: About 200 mg of drug substance will be dissolved in EtOAc. Obtained solutions shall be exposed to ambient condition (protected by N2) to allow slow evaporation of solvents (Table 35).

CCC(=O)[O][Mn][O]C(=O)CC.c1cc2nc(c1)CN[C@H]1CCCC[C@@H]1NCCN[C@H]1CCCC[C@@H]1NC2 [API]
Comments (protect with N2, 1,4-Dioxane): API degradation, purity | purity (protect with N2, 1,4-Dioxane): 97.76% | Comments (protect with N2, ACN): API degradation, purity | purity (protect with N2, ACN): 98.98% | purity (protect with N2, Acetone): Purity 99.39% | purity (protect with N2, DCM): Purity 99.93% | purity (protect with N2, EtOAc): Purity 99.42% | purity (protect with N2, Ethanol): Purity 99.65% | purity (protect with N2, IPA): Purity 99.63% | purity (protect with N2, IPAC): Purity 99.90% | purity (protect with N2, MEK): Purity 99.33% | purity (protect with N2, MTBE): Purity 99.88% | purity (protect with N2, Methanol): Purity 99.92% | purity (protect with N2, THF): Purity 99.12% | Comments (protect with N2, Toluene): API degradation, purity | purity (protect with N2, Toluene): 96.47%

— patent publication US20250073244A1, “CRYSTALLINE FORMS OF PENTAAZA MACROCYCLIC RING COMPLEX” (Galera Labs, LLC, priority 2023, published 2025)
